What all share (experiment): Kinase profiling in a biochemical assay panel (mobility shift assays and ELISA), %-inhibition at 1 μM; selectivity entropy
A general note: ELISA stands for enzyme-linked immunosorbent assay.

Assay [1] concerns the target panel of more than 300 wild-type and mutant kinases (313 kinase panel) (Homo sapiens, UniProt P07332). The note with it: kinase FES; compound at 1 μM.
The target of assay [2] is panel of more than 300 wild-type and mutant kinases (313 kinase panel) (Homo sapiens, UniProt P36894). The note with it: kinase BMPR1A; 1 μM compound.
Assay [3] has as its target panel of more than 300 wild-type and mutant kinases (313 kinase panel) (Homo sapiens, UniProt Q04759). The note with it: kinase PKCθ; 1 μM.
Assay [4] deals with panel of more than 300 wild-type and mutant kinases (313 kinase panel) (Homo sapiens, UniProt O75582). The note with it: kinase MSK1; 1 μM.
The target of assay [5] is T1, panel of more than 300 wild-type and mutant kinases (313 kinase panel) (Homo sapiens, UniProt P46734).
T1 sequence (P46734 1-347): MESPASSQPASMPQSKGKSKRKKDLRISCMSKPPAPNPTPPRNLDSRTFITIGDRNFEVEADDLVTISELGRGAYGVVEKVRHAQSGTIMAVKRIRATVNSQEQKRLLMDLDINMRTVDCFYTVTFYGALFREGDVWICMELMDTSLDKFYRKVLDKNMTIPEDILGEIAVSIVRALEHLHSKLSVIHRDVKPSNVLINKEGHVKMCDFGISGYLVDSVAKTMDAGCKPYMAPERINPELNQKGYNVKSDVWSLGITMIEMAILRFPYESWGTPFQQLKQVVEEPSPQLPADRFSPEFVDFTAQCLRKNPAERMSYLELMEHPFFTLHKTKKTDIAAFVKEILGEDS
The following applies: kinase MAP2K3; compound at 1 μM.

Assay [6] concerns the target T2, panel of more than 300 wild-type and mutant kinases (313 kinase panel) (Homo sapiens, UniProt Q96PF2).
T2 sequence (Q96PF2 1-358): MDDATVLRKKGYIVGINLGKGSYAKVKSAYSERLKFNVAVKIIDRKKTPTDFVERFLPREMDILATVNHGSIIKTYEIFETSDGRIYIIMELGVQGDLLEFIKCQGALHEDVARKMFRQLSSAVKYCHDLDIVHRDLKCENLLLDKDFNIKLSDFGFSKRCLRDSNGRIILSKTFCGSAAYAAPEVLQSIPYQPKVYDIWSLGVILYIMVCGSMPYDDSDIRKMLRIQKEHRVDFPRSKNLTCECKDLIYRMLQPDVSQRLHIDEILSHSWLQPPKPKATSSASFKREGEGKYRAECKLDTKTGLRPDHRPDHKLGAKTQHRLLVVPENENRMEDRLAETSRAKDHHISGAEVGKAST
The following applies: kinase TSSK2; 1 μM.

The target of assay [7] is panel of more than 300 wild-type and mutant kinases (313 kinase panel) (Homo sapiens, UniProt P10721). The following applies: kinase KIT; compound at 1 μM.
In assay [8] the target is panel of more than 300 wild-type and mutant kinases (313 kinase panel) (Homo sapiens, UniProt Q9H2G2). The following applies: kinase SLK; 1 μM.
Assay [9] addresses T3, panel of more than 300 wild-type and mutant kinases (313 kinase panel) (Homo sapiens, UniProt P15735).
T3 sequence (P15735 1-406): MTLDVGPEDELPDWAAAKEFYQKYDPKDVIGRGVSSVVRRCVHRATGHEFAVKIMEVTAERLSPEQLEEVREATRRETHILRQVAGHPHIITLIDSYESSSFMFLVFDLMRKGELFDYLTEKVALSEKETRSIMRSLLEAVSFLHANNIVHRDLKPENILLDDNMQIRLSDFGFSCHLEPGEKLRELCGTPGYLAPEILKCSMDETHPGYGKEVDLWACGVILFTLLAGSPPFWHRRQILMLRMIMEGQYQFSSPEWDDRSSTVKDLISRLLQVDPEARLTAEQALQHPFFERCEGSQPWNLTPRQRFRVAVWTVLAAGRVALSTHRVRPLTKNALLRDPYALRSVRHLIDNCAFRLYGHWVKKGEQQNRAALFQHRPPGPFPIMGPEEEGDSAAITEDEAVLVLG
The note with it: kinase PHKG2; 1 μM.

The target in assay [10] is panel of more than 300 wild-type and mutant kinases (313 kinase panel) (Homo sapiens, UniProt Q8N4C8).
Assay [11] has as its target panel of more than 300 wild-type and mutant kinases (313 kinase panel) (Homo sapiens, UniProt P49674). The note with it: kinase CK1ε; 1 μM compound.
Assay [12] has as its target T4, panel of more than 300 wild-type and mutant kinases (313 kinase panel) (Homo sapiens, UniProt O14733).
T4 sequence (O14733 1-419): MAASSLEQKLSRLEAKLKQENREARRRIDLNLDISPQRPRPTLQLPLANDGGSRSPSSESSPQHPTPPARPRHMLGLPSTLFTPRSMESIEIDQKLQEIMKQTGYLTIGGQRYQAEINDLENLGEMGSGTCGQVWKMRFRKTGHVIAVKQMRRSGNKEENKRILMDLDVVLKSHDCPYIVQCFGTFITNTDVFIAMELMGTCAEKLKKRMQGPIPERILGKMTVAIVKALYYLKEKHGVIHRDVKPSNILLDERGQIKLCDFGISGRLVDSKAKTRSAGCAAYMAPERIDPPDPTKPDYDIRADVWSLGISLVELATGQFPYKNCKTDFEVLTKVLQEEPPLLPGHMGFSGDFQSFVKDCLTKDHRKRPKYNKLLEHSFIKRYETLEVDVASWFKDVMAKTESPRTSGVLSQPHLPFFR

[13] abbreviates: kinase MAP2K7, compound at 1 μM.

These results are taken from paper PMC3961306, “Comparison of the Cancer Gene Targeting and Biochemical Selectivities of All Targeted Kinase Inhibitors Approved for Clinical Use” (PLoS ONE, 2014).

Chain of panel of more than 300 wild-type and mutant kinases (313 kinase panel) (Homo sapiens, UniProt Q8N4C8) (Q8N4C8 whole entry, change not shown): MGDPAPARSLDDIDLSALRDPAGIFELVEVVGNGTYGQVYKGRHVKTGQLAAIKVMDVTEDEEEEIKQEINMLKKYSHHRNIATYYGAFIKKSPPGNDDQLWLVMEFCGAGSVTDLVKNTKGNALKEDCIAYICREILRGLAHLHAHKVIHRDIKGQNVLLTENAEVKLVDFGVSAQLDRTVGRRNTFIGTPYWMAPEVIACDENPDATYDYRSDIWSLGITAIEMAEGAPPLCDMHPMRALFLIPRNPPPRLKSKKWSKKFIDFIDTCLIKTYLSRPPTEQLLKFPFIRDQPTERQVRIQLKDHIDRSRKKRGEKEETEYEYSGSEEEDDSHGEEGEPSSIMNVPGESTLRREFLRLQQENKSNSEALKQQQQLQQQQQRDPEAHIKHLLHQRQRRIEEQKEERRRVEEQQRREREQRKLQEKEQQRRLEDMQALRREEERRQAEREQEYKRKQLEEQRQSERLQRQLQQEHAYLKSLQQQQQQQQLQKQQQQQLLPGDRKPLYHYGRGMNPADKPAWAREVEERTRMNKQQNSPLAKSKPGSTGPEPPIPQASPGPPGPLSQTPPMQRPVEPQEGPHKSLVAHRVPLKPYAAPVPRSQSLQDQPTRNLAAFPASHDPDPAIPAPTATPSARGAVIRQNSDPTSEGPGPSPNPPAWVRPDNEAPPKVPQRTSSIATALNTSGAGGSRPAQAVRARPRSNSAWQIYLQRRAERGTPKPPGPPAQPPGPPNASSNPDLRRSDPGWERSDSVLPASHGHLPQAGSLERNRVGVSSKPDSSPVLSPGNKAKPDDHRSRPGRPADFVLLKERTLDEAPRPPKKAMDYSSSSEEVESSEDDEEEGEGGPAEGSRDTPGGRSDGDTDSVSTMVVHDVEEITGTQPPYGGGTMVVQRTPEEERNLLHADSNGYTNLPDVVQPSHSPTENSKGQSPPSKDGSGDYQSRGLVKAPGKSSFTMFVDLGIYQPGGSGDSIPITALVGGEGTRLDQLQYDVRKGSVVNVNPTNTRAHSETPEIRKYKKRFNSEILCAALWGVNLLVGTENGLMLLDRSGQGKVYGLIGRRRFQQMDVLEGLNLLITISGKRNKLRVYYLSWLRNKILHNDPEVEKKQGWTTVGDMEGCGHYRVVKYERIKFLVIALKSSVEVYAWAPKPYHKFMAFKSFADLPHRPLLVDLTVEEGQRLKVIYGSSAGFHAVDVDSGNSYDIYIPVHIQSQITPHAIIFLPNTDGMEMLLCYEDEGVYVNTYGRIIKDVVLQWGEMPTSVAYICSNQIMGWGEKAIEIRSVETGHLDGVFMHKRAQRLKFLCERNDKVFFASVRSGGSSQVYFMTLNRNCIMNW
Chain of panel of more than 300 wild-type and mutant kinases (313 kinase panel) (Homo sapiens, UniProt Q04759) (Q04759 whole entry, change not shown): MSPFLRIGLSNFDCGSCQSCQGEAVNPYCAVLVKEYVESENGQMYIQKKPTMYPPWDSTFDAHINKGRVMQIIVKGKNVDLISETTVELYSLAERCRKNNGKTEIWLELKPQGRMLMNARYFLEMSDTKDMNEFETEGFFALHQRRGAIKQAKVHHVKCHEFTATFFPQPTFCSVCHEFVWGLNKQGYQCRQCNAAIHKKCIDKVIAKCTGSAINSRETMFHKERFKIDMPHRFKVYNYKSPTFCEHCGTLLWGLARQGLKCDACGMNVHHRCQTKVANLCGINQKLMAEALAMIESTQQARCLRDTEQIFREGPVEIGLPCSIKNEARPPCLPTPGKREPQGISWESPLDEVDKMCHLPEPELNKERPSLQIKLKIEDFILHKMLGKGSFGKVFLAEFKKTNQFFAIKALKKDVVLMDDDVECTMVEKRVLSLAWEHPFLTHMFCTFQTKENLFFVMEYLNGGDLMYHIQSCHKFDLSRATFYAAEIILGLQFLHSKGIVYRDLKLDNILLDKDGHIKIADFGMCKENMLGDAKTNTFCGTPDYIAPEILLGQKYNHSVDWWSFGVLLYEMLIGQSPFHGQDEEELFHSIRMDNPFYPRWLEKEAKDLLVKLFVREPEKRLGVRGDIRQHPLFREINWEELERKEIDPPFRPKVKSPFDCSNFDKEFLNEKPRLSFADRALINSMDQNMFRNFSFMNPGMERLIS
Chain of panel of more than 300 wild-type and mutant kinases (313 kinase panel) (Homo sapiens, UniProt P10721) (P10721 26-976, change not shown): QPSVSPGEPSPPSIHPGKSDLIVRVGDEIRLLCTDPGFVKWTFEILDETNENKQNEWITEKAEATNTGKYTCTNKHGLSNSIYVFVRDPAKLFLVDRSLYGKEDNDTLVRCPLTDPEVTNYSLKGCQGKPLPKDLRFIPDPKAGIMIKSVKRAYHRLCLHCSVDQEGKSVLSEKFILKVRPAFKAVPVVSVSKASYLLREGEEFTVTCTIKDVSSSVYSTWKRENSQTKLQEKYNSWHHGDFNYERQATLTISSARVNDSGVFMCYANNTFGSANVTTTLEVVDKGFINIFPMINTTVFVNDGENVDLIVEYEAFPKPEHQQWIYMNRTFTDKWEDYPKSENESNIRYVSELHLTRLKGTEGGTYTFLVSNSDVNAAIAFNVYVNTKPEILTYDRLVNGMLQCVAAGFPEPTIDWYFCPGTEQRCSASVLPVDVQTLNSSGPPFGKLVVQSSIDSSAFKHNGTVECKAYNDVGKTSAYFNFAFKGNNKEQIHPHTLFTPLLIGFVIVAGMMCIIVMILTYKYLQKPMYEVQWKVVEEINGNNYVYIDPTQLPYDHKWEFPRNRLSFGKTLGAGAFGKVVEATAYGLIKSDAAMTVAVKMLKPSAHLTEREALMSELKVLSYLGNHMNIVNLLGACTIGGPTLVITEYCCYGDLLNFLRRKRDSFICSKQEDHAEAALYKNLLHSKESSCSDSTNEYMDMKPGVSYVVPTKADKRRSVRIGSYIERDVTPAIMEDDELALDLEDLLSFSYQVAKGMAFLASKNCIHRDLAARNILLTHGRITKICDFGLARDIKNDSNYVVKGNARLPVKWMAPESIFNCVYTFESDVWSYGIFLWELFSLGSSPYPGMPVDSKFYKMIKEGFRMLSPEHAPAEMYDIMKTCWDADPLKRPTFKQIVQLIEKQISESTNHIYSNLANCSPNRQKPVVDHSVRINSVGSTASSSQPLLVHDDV

Turning to `N#CC[C@H](C1CCCC1)n1cc(-c2ncnc3[nH]ccc23)cn1` [ruxolitinib], the “%-inhibition of FES” value in [1] was determined as 3%. Moreover, the “%-inhibition, BMPR1A” value in [2] came out at 5.7%. Also, the “%-inhibition of PKCθ” value in [3] is -1.47%. Also, in [4], the “%-inhibition of MSK1” value is given as 37%. The “%-inhibition of MAP2K3” value in [5] stood at 27%. Besides, in [6], the “%-inhibition of TSSK2” value was -10%. For the same molecule, the “%-inhibition of KIT” value in assay [7] turned out to be 3%. For the same molecule, in assay [8], the “%-inhibition of SLK” value is recorded as 7%. For the same molecule, the “%-inhibition of PHKG2” value in assay [9] turned out to be 18%. Further, the “%-inhibition of MINK” value in assay [10] (1 µM) is -6%. Moreover, in assay [11], the “%-inhibition, CK1ε” value came to 7.39%. Further, the “%-inhibition of MAP2K7” value in assay [12] (1 µM) worked out at 4%.

On to `CO[C@H]1C[C@@H]2CC[C@@H](C)[C@@](O)(O2)C(=O)C(=O)N2CCCC[C@H]2C(=O)O[C@H]([C@H](C)C[C@@H]2CC[C@@H](OC(=O)C(C)(CO)CO)[C@H](OC)C2)CC(=O)[C@H](C)/C=C(\C)[C@@H](O)[C@@H](OC)C(=O)[C@H](C)C[C@H](C)/C=C/C=C/C=C/1C` [temsirolimus], for which the “%-inhibition of FES” value in assay [1] was -4.68%. The “%-inhibition, BMPR1A” value in assay [2] is on record as -9%. Besides, the “%-inhibition of PKCθ” value in [3] is -2.62%. Further, the “%-inhibition of MSK1” value in [4] came to 0%. In assay [5], the “%-inhibition of MAP2K3” value was determined as 10%. Besides, in assay [6], the “%-inhibition of TSSK2” value is -0.179%. For the same molecule, the “%-inhibition of KIT” value in [7] was -8%. Further, the “%-inhibition of SLK” value in assay [8] is recorded as -4%. Moreover, the “%-inhibition of PHKG2” value in assay [9] is recorded as -7%. Besides, the “%-inhibition of MINK” value in assay [10] (kinase MINK, 1 μM) is -4%. Moreover, the “%-inhibition, CK1ε” value in assay [11] was -7%. The “%-inhibition of MAP2K7” value in [12] (setting [13]) came to 10%.

In the case of `CC(=O)Nc1cccc(-n2c(=O)n(C3CC3)c(=O)c3c(Nc4ccc(I)cc4F)n(C)c(=O)c(C)c32)c1` [trametinib], in assay [1], the “%-inhibition of FES” value was -1.55%. Also, the “%-inhibition, BMPR1A” value in [2] stood at 2.14%. In addition, the “%-inhibition of PKCθ” value in assay [3] came out at 0.388%. Besides, the “%-inhibition of MSK1” value in assay [4] was -0.531%. In addition, the “%-inhibition of MAP2K3” value in [5] stood at 3%. The “%-inhibition of TSSK2” value in assay [6] was -1.73%. Also, in [7], the “%-inhibition of KIT” value is given as -0.648%. Further, in assay [8], the “%-inhibition of SLK” value was -2.6%. Further, in assay [9], the “%-inhibition of PHKG2” value was 2.81%. The “%-inhibition of MINK” value in assay [10] (kinase MINK, 1 μM) is given as -1.8%. In addition, the “%-inhibition, CK1ε” value in assay [11] is reported as -5.38%. Also, the “%-inhibition of MAP2K7” value in assay [12] (setting [13]) is -2.32%.

As for `CCCS(=O)(=O)Nc1ccc(F)c(C(=O)c2c[nH]c3ncc(-c4ccc(Cl)cc4)cc23)c1F` [vemurafenib], the “%-inhibition of FES” value in [1] came to 18%. Further, the “%-inhibition, BMPR1A” value in assay [2] is given as 9%. In addition, the “%-inhibition of PKCθ” value in assay [3] is -3%. Moreover, the “%-inhibition of MSK1” value in assay [4] came out at 0.256%. The “%-inhibition of MAP2K3” value in assay [5] turned out to be 34%. In addition, the “%-inhibition of TSSK2” value in [6] is on record as -11%. Also, the “%-inhibition of KIT” value in [7] was determined as 58%. The “%-inhibition of SLK” value in assay [8] was 43%. Moreover, the “%-inhibition of PHKG2” value in assay [9] is -4.37%. Moreover, in assay [10] (kinase MINK, 1 μM), the “%-inhibition of MINK” value amounted to 10%. Further, the “%-inhibition, CK1ε” value in assay [11] is 2.46%. For the same molecule, in assay [12] (setting [13]), the “%-inhibition of MAP2K7” value is listed as 1.65%.
